Results taken from patent publication US7955847B2, “Method for enhancing leukocyte immune function” (priority 2004, dated 2011).

Test system: leukocyte NADPH oxidase (cytochrome b558)
Test: Cell surface expression of cytochrome b558 (NADPH oxidase) by flow cytometry with antibody 7D5
Format: cell-based, human
Conditions: leukocytes from X91-CGD patient; 2 hrs treatment; anti-cytochrome b558 antibody 7D5, flow cytometry
Procedure: Blood samples with EDTA were obtained from patients with X91-chronic granulomatous disease. The samples were water bathed at 37° C. in a lysate buffer containing ammonium chloride, sodium carbonate and EDTA for several minutes to lyze residual red blood cells. The samples were then added with a suspension buffer containing globulin and EDTA to wash and remove the residual lysate buffer. The leukocytes were collected by centrifugation and counted.
Total leukocytes were maintained in RPMI 1640 medium supplemented with 10% heat-inactivated FBS at 37° C. under a humidified atmosphere (5% CO2+95% air). The leukocytes were seeded at a density of 3 to 5×10^5/ml and grown for 2 hrs in the presence or absence of 100 nM cofactor FAD and/or thapsigargin (100 nM or 1 μM). The cells were then cultured in 10% RPMI to recover for 1 hr prior to the following experiments.
To test whether the treatment with thapsigargin or cofactor FAD alone or in combination has effects on the cell surface expression of leukocyte NADPH oxidase, the cell surface expressions of cytochrome b558 in leukocytes with or without desired treatment were assayed. Leukocytes were prepared as illustrated in Example 1. The leukocytes, at the concentration of 5×10^5 cells/ml, were incubated with anticytochrome b558 monoclonal antibody (7D5) at 4° C. for 30 min, followed by incubation with FITC-labeled goat anti-mouse IgG for 40 min.

With `Cc1cc2nc3c(=O)[nH]c(=O)nc-3n(C[C@H](O)[C@H](O)[C@H](O)COP(=O)(O)OP(=O)(O)OC[C@H]3O[C@@H](n4cnc5c(N)ncnc54)[C@H](O)[C@@H]3O)c2cc1C` [cofactor FAD, flavin adenine dinucleotide] the “cell surface NADPH oxidase expression” value was “slightly enhanced”.

`C/C=C(/C)C(=O)O[C@H]1C(C)=C2[C@H]([C@@H]1OC(=O)CCCCCCC)[C@@](C)(OC(C)=O)C[C@H](OC(=O)CCC)[C@@]1(O)[C@H]2OC(=O)[C@@]1(C)O` [thapsigargin] was tested, and the “cell surface NADPH oxidase expression” value was “slightly enhanced”.
